What is called Km is the concentration of substrate that gives half-maximal velocity.

“Also recorded” adds a separate entry of the source. Like-named read-outs stand apart in the source and are kept apart here. *1 amine or outer side, *2 acyl side, *3 side chain or, on linkers, in order; H or OH if unused. Where a SMILES comes first, the peptide text is derived from it. CO = O=C([*:1])[*:2]

Format in all cases: biochemical
Test [1] has as its target T1, HRV2 2A proteinase (Human rhinovirus 2, UniProt P04936).
Target sequence in this assay (P04936 851-992 limits assumed): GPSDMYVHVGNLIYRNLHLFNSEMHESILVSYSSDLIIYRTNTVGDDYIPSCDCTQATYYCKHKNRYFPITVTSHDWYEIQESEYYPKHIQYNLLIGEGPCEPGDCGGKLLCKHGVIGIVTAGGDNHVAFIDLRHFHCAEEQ
In test [2] the target is T1, HRV2 2A proteinase. As to conditions: for cleavability by HRV2 2A (in words): trans-cleavage assay, 34° C., up to 32 minutes.
Test [3] addresses T1, HRV2 2A proteinase. Nature of the test: Competition of non-cleavable or slightly cleavable peptides with P89 cleaving.
In test [4] the target is T1, HRV2 2A proteinase. In words: Km determination with peptide substrate P89 (trans-cleavage assays). The note with it: peptide substrate P89, 15° C., 50 to 500 μmol/l, repeated three times with various 2A preparations. The procedure: […] For competitive or inhibitory studies, an additional 5 μl of solution containing the substance for competition or inhibition are added. The reaction is stopped by adding an equal volume of a 0.5M HClO4 solution. The samples are cooled to 0° C. for 10 minutes or frozen overnight at -20° C. After centrifugation (Eppendorf centrifuge, 10 min, 4° C.) an equal volume of a 1.4M K2 HPO4 solution is added. The samples are left to stand for 5 minutes at ambient temperature and the precipitate is separated off by centrifuging. […] The reaction products are detected by UV absorption at 214 and 280 nm. The course of the reaction over a period of time (% cleavage of the peptide substrate) is determined by "reverse phase" HPLC. The area of the newly formed peptide peak corresponding to the quantity of the carboxy- and amino terminal cleavage products is determined for each case and compared with the area of the uncleaved P89. The cleavage products are determined either by comigration with the corresponding reference peptides and amino acid analysis or by protein sequencing (Hunkapillar and Hood, 1983, loc. cit.). […]
In order to identify the Km value for the Wild type substrate P89 a set of trans-cleavage assays are carried out at 15° C. with various P89 substrate concentrations (between 50 and 500 μmol/l). […] For each substrate concentration the reaction speed was determined (% cleavage of P89). […]

The mark [5] stands for this setting: inhibitor added before start of reaction, repeated three times.

Consider `N=C(N)c1ccc(CS(=O)(=O)F)cc1` [APMSF, 4-(Amidinophenyl)methanesulphonylfluoride], for which, in test [1] (setting [5]), the “effect on the activity of 2A relative to peptide P89” value is on record as “no activity”.
Take `O[C@H](CS)[C@H](O)CS` (racemic) [DTT, Dithiothreitol]: the “effect on the activity of 2A relative to peptide P89” value in test [1] (setting [5]) is recorded as “no effect”.
For the molecule `O=C(O)CN(CCN(CC(=O)O)CC(=O)O)CC(=O)O` [EDTA], in test [1], the “effect on the activity of 2A relative to peptide P89” value is “a certain inhibiting effect at higher concentrations”.
Turning to chymostatin, in test [1] (setting [5]), the “effect on the activity of 2A relative to peptide P89” value was “highly effective”.
For Ac-TRPIITTAG-NH2 [WTN9], in test [2], the “% cleavage compared with P89” value was 10% and the “cleavability by HRV2 2A (in words)” value was “sufficient for a cleavage”.
As for `CC(C)CC(NC(=O)C1OC1C(=O)O)C(=O)NCCCCNC(=N)N` (stereo not drawn) [E-64], the “effect on the activity of 2A relative to peptide P89” value in test [1] (setting [5]) was “no effect”.
Consider “TRPIITTNGPSDMYV [G5, Ala for Asn at position P1]”, for which, in test [2], the “cleavability by HRV2 2A (in words)” value is listed as “dramatically reduced cleavability”. The “ability to act as competitor/inhibitor of P89 cleaving” value in test [3] is reported as “became competitive; also recorded: behaved competitively”.
Regarding Ac-ITTAGPSD-NH2 [WTD8, ITTAGPSD], the “cleavability by HRV2 2A (in words)” value in test [2] is listed as “cannot be cleaved”. Moreover, the “ability to act as competitor/inhibitor of P89 cleaving” value in test [3] is recorded as “became competitive; also recorded: behaved competitively; also recorded: competitive inhibitors”.
With `N[C@@H](CS)C(=O)O` [cysteine], in test [1] (setting [5]), the “effect on the activity of 2A relative to peptide P89” value is recorded as “no effect”.
As to “TRPIITNAGPSDMYV [B8, Thr for Asn at position P2]”, in test [3], the “ability to act as competitor/inhibitor of P89 cleaving” value is reported as “became competitive; also recorded: behaved competitively”.
Take `c1cnc2c(c1)ccc1cccnc12` [1,10-phenanthrolene]: in test [1] (setting [5]), the “effect on the activity of 2A relative to peptide P89” value is “a certain inhibiting effect at higher concentrations”.
On to “TRIITSAGPSDMYV [B4, Thr for Ser at position P2]”, for which the “ability to act as competitor/inhibitor of P89 cleaving” value in test [3] is “became competitive; also recorded: behaved competitively”.
Consider `Cc1ccc(S(=O)(=O)N[C@@H](CCCCN)C(=O)CCl)cc1` [TLCK, Tosyllysylchloromethylketone], for which the “effect on the activity of 2A relative to peptide P89” value in test [1] (setting [5]) was “only effective at higher concentrations”.
In the case of `CCN1C(=O)C=CC1=O` [N-ethylmaleimide], the “effect on the activity of 2A relative to peptide P89” value in test [1] (setting [5]) is recorded as “strongly inhibit”.
In the case of `CC(=O)N[C@@H](CC(C)C)C(=O)N[C@@H](CC(C)C)C(=O)N[C@H](C=O)CCCNC(=N)N` [Leupeptine], the “effect on the activity of 2A relative to peptide P89” value in test [1] (setting [5]) is on record as “ineffectiveness”.
On to `CC(C)C[C@H](NC(=O)N[C@H](C(=O)N[C@@H](CCC(N)=O)C(=O)N[C@@H](C)C=O)[C@@H]1CCNC(=N)N1)C(=O)O` [elastatinal], for which the “effect on the activity of 2A relative to peptide P89” value in test [1] (setting [5]) is “highly effective”.
Same read-out and setting: with `CC(C)[C@H](NC(=O)[C@H](CCCNC(=N)N)NC(=O)N[C@@H](Cc1ccccc1)C(=O)O)C(=O)N[C@H](C=O)CCCNC(=N)N` [antipain] ({Phe-CO}-Arg-Val-Arg-aldehyde) the entry was “highly effective”.
Ac-IITTAGPSDM-NH2 [P145, IITTAGPSDM]: the “cleavability by HRV2 2A (in words)” value in test [2] is reported as “cannot be cleaved”. For the same molecule, in test [3], the “ability to act as competitor/inhibitor of P89 cleaving” value is listed as “became competitive; also recorded: behaved competitively; also recorded: competitive inhibitors”.
With `Cc1ccc(S(=O)(=O)N[C@@H](Cc2ccccc2)C(=O)CCl)cc1` [TPCK, Tosylphenylalanylchloromethylketone], the “effect on the activity of 2A relative to peptide P89” value in test [1] (setting [5]) was “only effective at higher concentrations”.
For the molecule Ac-ITTAGPSDMYVH-NH2 [D], the “cleavability by HRV2 2A (in words)” value in test [2] is recorded as “fall in cleavability of one order of magnitude; also recorded: reduction in the cleavability by one order of magnitude”.
Turning to `O=c1oc(Cl)c(Cl)c2ccccc12` [3,4-dichloroisocumarin], the “effect on the activity of 2A relative to peptide P89” value in test [1] (setting [5]) is “no activity”.
On the same count and under the same terms, with `NC(=O)CI` [iodacetamide] the entry was “strongly inhibit”.
“acetyl-TRPIITTA*GPSDMYVH-NH2 (Ac-TRPIITTAGPSDMYVH-NH2; not fully specified (residue 8); printed as acetyl-TRPIITTA*GPSDMYVH-NH2) [P89, reference compound]”: the Km in test [4] amounted to 540 µM. Moreover, the “cleavability by HRV2 2A (in words)” value in test [2] is “specifically cleaved”.
Take “TRPIITTPSDMYVH [AB2, deleted Wild type substrate, missing cleavage site]”: in test [2], the “cleavability by HRV2 2A (in words)” value was “No cleaving (nor any alternative) is observed; also recorded: No cleavage (nor any alternative cleavage) was observed; also recorded: cannot be cleaved”. The “ability to act as competitor/inhibitor of P89 cleaving” value in test [3] is “became competitive; also recorded: behaved competitively; also recorded: competitive inhibitors”.

(Values after US5559025A (priority 1991, dated 1996).)
